Measurements published in patent publication US7176224B2, “Oxazolyl-aryloxyacetic acid derivatives and their use as PPAR agonists” (Eli Lilly and Company, priority 2000, dated 2007).

Legend:
[1] = system: huPPARγ; experiment: Cotransfection assay in CV-1 cells, luciferase reporter; format: cell-based, human; conditions: GAL4 chimeric system, relative to agonist reference molecule
Protocol: […] binding (ABCD binding) was carried out using SPA technology with PPAR receptors. […] Cotransfection assays were carried out in CV-1 cells. The reporter plasmid contained an acylCoA oxidase (AOX) PPRE and TK promoter upstream of the luciferase reporter cDNA. Appropriate PPARs and RXRα were constitutively expressed using plasmids containing the CMV promoter. […] In order to eliminate such interference, a GAL4 chimeric system was used in which the DNA binding domain of the transfected PPAR was replaced by that of GAL4, and the GAL4 response element was utilized in place of the AOX PPRE. […] Efficacies were determined by computer fit to a concentration-response curve, or in some cases at a single high concentration of agonist (10 μM). For binding or cotransfection studies with receptors other than PPARs, similar assays were carried out using appropriate ligands, receptors, reporter constructs, etc., for that particular receptor.
These studies were carried out to evaluate the ability of compounds of the invention to bind to and/or activate various nuclear transcription factors, particularly huPPARα (“hu” indicates “human”) and huPPARγ. These studies provide in vitro data concerning efficacy and selectivity of compounds of the invention. Furthermore, binding and cotransfection data for compounds of the invention were compared with corresponding data for marketed compounds that act on either huPPARα or huPPARγ.

[2] = system: Hu apoAI transgenic mice; experiment: Evaluation of triglyceride and cholesterol levels in hu apoAI transgenic mice; format: in vivo; conditions: 30 mg/kg oral gavage daily for 7 days; serum HDLc FPLC area under the curve, over mice receiving vehicle
Protocol: Five to six week old male mice, transgenic for human apoAI [C57B1/6-tgn(apoa1) 1rub, Jackson Laboratory, Bar Harbor, Me.] were housed five per cage (10″×20″8″ with aspen chip bedding) with food (Purina 5001) and water available at all times. After an acclimation period of 2 weeks, animals were individually identified by ear notches, weighed, and assigned to groups based on body weight. Beginning the following morning, mice were dosed daily by oral gavage for 7 days using a 20 gauge, 1½″ curved disposable feeding needle (Popper & Sons). Treatments were test compounds (30 mg/kg), a positive control (fenofibrate, 100 mg/kg) or vehicle [1% carboxymethylcellulose (w/v)/0.25% Tween80 (w/v); 0.2 ml/mouse]. Prior to termination on day 7, mice were weighed and dosed. Three hours after dosing, animals were anesthetized by inhalation of isoflurane (2–4%; Abbott Laboratories, Chicago, Ill.) and blood obtained via cardiac puncture (0.7–1.0 ml). Whole blood was transferred to serum separator tubes (Vacutainer SST), chilled on ice, and permitted to clot. Serum was obtained after centrifugation at 4° C. and frozen until analysis for triglycerides, total cholesterol, compound levels, and serum lipoprotein profile by fast protein liquid chromatography (FPLC) coupled to an inline detection system. After sacrifice by cervical dislocation, the liver, heart and epididymal fat pads were excised and weighed.
The animals dosed with vehicle had average triglycerides values of 60–80 mg/dl, which were reduced by the positive control fenofibrate (33–58 mg/dl with a mean reduction of 37%). The animals dosed with vehicle had average total serum cholesterol values of 140–180 mg/dl, which were increased by fenofibrate (190–280 mg/dl, with a mean elevation of 41%). […] increased the amount of HDLc (68–96 v-sec with a mean percent increase of 48%).
Glucose was measured colorimetrically using commercially purchased reagents (Sigma #315-500). According to the manufacturers, the procedures were modified from published work (McGowan, M. W., Artiss, J. D., Strandbergh, D. R. & Zak, B. Clin Chem, 20:470–5 (1974) and Keston, A. Specific colorimetric enzymatic analytical reagents for glucose. Abstract of papers 129th Meeting ACS, 31C (1956).); and depend on the release of a mole of hydrogen peroxide for each mole of analyte, coupled with a color reaction first described by Trinder (Trinder, P. Determination of glucose in blood using glucose oxidase with an alternative oxygen acceptor. Ann Clin Biochem, 6:24 (1969)). The absorbance of the dye produced is linearly related to the analyte in the sample. The assays were further modified in our laboratory for use in a 96 well format. Standards (Sigma #339-11, Sigma #16-11, and Sigma #CC0534 for glucose, triglycerides and total cholesterol, respectively), quality control plasma (Sigma # A2034), and samples (2 or 5 μl/well) were measured in duplicate using 200 μl of reagent. An additional aliquot of sample, pipetted to a third well and diluted in 200 μl water, provided a blank for each specimen. Plates were incubated at room temperature (18, 15, and 10 minutes for glucose, triglycerides and total cholesterol, respectively) on a plate shaker (DPC Micormix 5) and absorbance read at 500 nm (glucose and total cholesterol) or 540 nm (triglycerides) on a plate reader (Wallac Victor 1420). Sample absorbances were compared to a standard curve (100–800, 10–500, and 100–400 mg/dl for glucose, triglycerides and total cholesterol, respectively). Values for the quality control sample were always within the expected range and the coefficient of variation for samples was below 10%. All samples from an experiment were assayed at the same time to minimize inter-assay variability.
Serum lipoproteins were separated and cholesterol quantitated with an in-line detection system. Sample was applied to a Superose® 6 HR 10/30 size exclusion column (Amersham Pharmacia Biotech) and eluted with phosphate buffered saline-EDTA at 0.5 ml/min. […]

For `Cc1oc(-c2cccc(-c3ccc(F)cc3)c2)nc1CCOc1ccc(CC(C)(Oc2ccccc2)C(=O)O)cc1` (centres unmarked) [Example 4, 3-(4-{2-[2-(4′-Fluorobiphenyl-3-yl)-5-methyloxazol-4-yl]ethoxy}phenyl)-2-methyl-2-phenoxypropionic acid], the “huPPARγ CTF Efficacy” value [1] was 93% and the “% HDLc Increase” value [2] was 40.4%.
